PubChem BioAssay AID248 (DTP/NCI, 2004)
Several values for one entry are separate records, joined by “and”; a condition that tells them apart may be missing. Equal entries are not always repeated. Toxic doses and inconclusive results are not listed. Rule as the data show it: active = T/C of 150% or more; inactive = T/C below 125%.

Test system: L1210 leukemia ip in BDF1 mice, survival T/C
Test: NCI In Vivo Anticancer Drug Screen. Data for tumor model L1210 Leukemia (intraperitoneal) in B6D2F1 (BDF1) mice
Details: endpoint: mean survival time, higher = longer survival
In short: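 Read-out is survival time, reported as the treated-group measurement over the vehicle-control measurement.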

[1] = dose: 100.0 mg/kg/injection, schedule: Q01DX001 (ip), vehicle: Klucel (hydroxypropylcellulose) (HPC)
[2] = dose: 100.0 mg/kg/injection, schedule: Q01DX009 (ip), vehicle: Klucel (hydroxypropylcellulose) (HPC)
[3] = dose: 100.0 mg/kg/injection, schedule: Q04DX002 (ip), vehicle: Klucel (hydroxypropylcellulose) (HPC)
[4] = dose: 200.0 mg/kg/injection, schedule: Q01DX001 (ip), vehicle: Klucel (hydroxypropylcellulose) (HPC)
[5] = dose: 200.0 mg/kg/injection, schedule: Q01DX009 (ip), vehicle: Klucel (hydroxypropylcellulose) (HPC)
[6] = dose: 200.0 mg/kg/injection, schedule: Q04DX002 (ip), vehicle: Klucel (hydroxypropylcellulose) (HPC)
[7] = dose: 400.0 mg/kg/injection, schedule: Q01DX001 (ip), vehicle: Klucel (hydroxypropylcellulose) (HPC)
[8] = dose: 400.0 mg/kg/injection, schedule: Q01DX009 (ip), vehicle: Klucel (hydroxypropylcellulose) (HPC)
[9] = dose: 400.0 mg/kg/injection, schedule: Q04DX002 (ip), vehicle: Klucel (hydroxypropylcellulose) (HPC)
[10] = dose: 25.0 mg/kg/injection, schedule: Q04DX003 (ip), vehicle: saline
[11] = dose: 50.0 mg/kg/injection, schedule: Q01DX001 (ip), vehicle: saline
[12] = dose: 100.0 mg/kg/injection, schedule: Q01DX001 (ip), vehicle: saline
[13] = dose: 200.0 mg/kg/injection, schedule: Q01DX001 (ip), vehicle: saline
[14] = dose: 400.0 mg/kg/injection, schedule: Q01DX001 (ip), vehicle: saline
[15] = dose: 50.0 mg/kg/injection, schedule: Q01DX001 (ip), vehicle: carboxymethylcellulose (CMC)
[16] = dose: 100.0 mg/kg/injection, schedule: Q01DX001 (ip), vehicle: carboxymethylcellulose (CMC)
[17] = dose: 200.0 mg/kg/injection, schedule: Q01DX001 (ip), vehicle: carboxymethylcellulose (CMC)

Measured: T/C

O=C1CN=C(c2ccccn2)c2cc(Br)ccc2N1
inactive: dose: 3.1 mg/kg/injection, schedule: Q03HX024 (ip), vehicle: Klucel (hydroxypropylcellulose) (HPC) 98 % of control | dose: 6.2 mg/kg/injection, schedule: Q03HX024 (ip), vehicle: Klucel (hydroxypropylcellulose) (HPC) 100 % of control | dose: 12.5 mg/kg/injection, schedule: Q03HX024 (ip), vehicle: Klucel (hydroxypropylcellulose) (HPC) 98 % of control | dose: 25.0 mg/kg/injection, schedule: Q03HX024 (ip), vehicle: Klucel (hydroxypropylcellulose) (HPC) 94 % of control | dose: 50.0 mg/kg/injection, schedule: Q03HX024 (ip), vehicle: Klucel (hydroxypropylcellulose) (HPC) 97 % of control | [1] 96 % of control | [2] 94 % of control | [3] 101 % of control and 109 % of control | dose: 100.0 mg/kg/injection, schedule: Q04DX003 (ip), vehicle: Klucel (hydroxypropylcellulose) (HPC) 101 % of control | dose: 119.0 mg/kg/injection, schedule: Q01DX001 (ip), vehicle: Klucel (hydroxypropylcellulose) (HPC) 98 % of control | dose: 178.0 mg/kg/injection, schedule: Q01DX001 (ip), vehicle: Klucel (hydroxypropylcellulose) (HPC) 98 % of control | [4] 93 % of control | [5] 106 % of control | [6] 93 % of control and 98 % of control | dose: 200.0 mg/kg/injection, schedule: Q04DX003 (ip), vehicle: Klucel (hydroxypropylcellulose) (HPC) 97 % of control | dose: 266.0 mg/kg/injection, schedule: Q01DX001 (ip), vehicle: Klucel (hydroxypropylcellulose) (HPC) 89 % of control | [7] 96 % of control | [8] 96 % of control | [9] 92 % of control | dose: 400.0 mg/kg/injection, schedule: Q04DX003 (ip), vehicle: Klucel (hydroxypropylcellulose) (HPC) 101 % of control | dose: 600.0 mg/kg/injection, schedule: Q01DX001 (ip), vehicle: Klucel (hydroxypropylcellulose) (HPC) 106 % of control

COc1ccccc1C(=O)NN
inactive: dose: 6.25 mg/kg/injection, schedule: Q04DX003 (ip), vehicle: saline 98 % of control | dose: 12.5 mg/kg/injection, schedule: Q04DX003 (ip), vehicle: saline 98 % of control | dose: 25.0 mg/kg/injection, schedule: Q01DX009 (ip), vehicle: saline 106 % of control | [10] 103 % of control | dose: 50.0 mg/kg/injection, schedule: Q01DX009 (ip), vehicle: saline 110 % of control

Clc1ccc(C(c2ccc(Cl)cc2)N2CCNCC2)cc1
inactive: dose: 25.0 mg/kg/injection, schedule: Q01DX009 (ip), vehicle: saline with Tween-80 98 % of control

O=C(O)O.[Co].[NH-]CCN(CC[NH-])CC[NH-]
inactive: [11] 105 % of control | [12] 94 % of control | [13] 111 % of control | [14] 100 % of control

CCN(CC)CC(O)Cn1cnc2cncnc21 (stereo unspecified)
inactive: [10] 98 % of control | dose: 50.0 mg/kg/injection, schedule: Q04DX003 (ip), vehicle: saline 107 % of control | dose: 100.0 mg/kg/injection, schedule: Q04DX003 (ip), vehicle: saline 98 % of control

CCCCCCCCCCCCCCCCCCNC(=O)Nc1ccc([N+](=O)[O-])cc1Br
inactive: [3] 97 % of control | [6] 97 % of control | [9] 90 % of control

CC(C)(C)C1CCC2(CC1)CCN(CCCN1CCCCCC1)CC2
inactive: [11] 96 % of control | [12] 107 % of control

CCCCCCCC(=O)N1CC(C)OC(C)C1 (stereo unspecified)
inactive: [3] 100 % of control | [6] 114 % of control | [9] 107 % of control

COc1ccc(-c2ccccc2)cc1S
inactive: [15] 95 % of control | [16] 98 % of control | [17] 93 % of control | dose: 400.0 mg/kg/injection, schedule: Q01DX001 (ip), vehicle: carboxymethylcellulose (CMC) 98 % of control

CCCCCCCCCCCCCCCCCC(=O)CCCCCCCCCCCCCCCCC
inactive: [1] 88 % of control | [4] 96 % of control | [7] 91 % of control

CS(=O)(=O)c1nsc(S(C)(=O)=O)c1C#N
inactive: dose: 100.0 mg/kg/injection, schedule: Q04DX003 (ip), vehicle: carboxymethylcellulose (CMC) 95 % of control | dose: 200.0 mg/kg/injection, schedule: Q04DX003 (ip), vehicle: carboxymethylcellulose (CMC) 97 % of control | dose: 400.0 mg/kg/injection, schedule: Q04DX003 (ip), vehicle: carboxymethylcellulose (CMC) 95 % of control

CS(=O)(=O)Cc1ccccc1
inactive: [2] 101 % of control | [3] 86 % of control | [5] 101 % of control | [6] 101 % of control | [8] 86 % of control | [9] 90 % of control

CC1C2CC3OC(=O)C1C3C2 (stereo unspecified)
inactive: [15] 104 % of control | [16] 102 % of control | [17] 87 % of control

c1cc[c]([Sn]([S]c2ccccn2)([c]2ccccc2)[c]2ccccc2)cc1
inactive: dose: 6.25 mg/kg/injection, schedule: Q04DX002 (ip), vehicle: saline with Tween-80 93 % of control | dose: 12.5 mg/kg/injection, schedule: Q04DX002 (ip), vehicle: saline with Tween-80 93 % of control | dose: 25.0 mg/kg/injection, schedule: Q04DX002 (ip), vehicle: saline with Tween-80 108 % of control

Cn1c(Cl)c(/C=N/NC(N)=S)c2ccccc21
inactive: dose: 50.0 mg/kg/injection, schedule: Q04DX002 (ip), vehicle: Klucel (hydroxypropylcellulose) (HPC) 91 % of control | [3] 91 % of control | [6] 87 % of control

CC1OCC(C)C(C)(C)O1 (stereo unspecified)
inactive: dose: 50.0 mg/kg/injection, schedule: Q01DX009 (ip), vehicle: acetone 100 % of control | dose: 100.0 mg/kg/injection, schedule: Q01DX009 (ip), vehicle: acetone 90 % of control | dose: 100.0 mg/kg/injection, schedule: Q04DX003 (ip), vehicle: acetone 112 % of control | dose: 200.0 mg/kg/injection, schedule: Q01DX009 (ip), vehicle: acetone 89 % of control | dose: 200.0 mg/kg/injection, schedule: Q04DX003 (ip), vehicle: acetone 108 % of control | dose: 400.0 mg/kg/injection, schedule: Q04DX003 (ip), vehicle: acetone 103 % of control

NC(=S)N1CCOCC1
inactive: dose: 100.0 mg/kg/injection, schedule: Q04DX002 (ip), vehicle: saline 97 % of control | dose: 200.0 mg/kg/injection, schedule: Q04DX002 (ip), vehicle: saline 101 % of control | dose: 400.0 mg/kg/injection, schedule: Q04DX002 (ip), vehicle: saline 108 % of control

O=C(Nc1ccc(C2=NCCN2)cc1)c1ccc(-c2ccc(C(=O)Nc3ccc(C4=NCCN4)cc3)cc2)cc1
inactive: dose: 111.0 mg/kg/injection, schedule: Q01DX Z (ip), vehicle: carboxymethylcellulose (CMC) 105 % of control | dose: 166.0 mg/kg/injection, schedule: Q01DX Z (ip), vehicle: carboxymethylcellulose (CMC) 101 % of control | dose: 250.0 mg/kg/injection, schedule: Q01DX Z (ip), vehicle: carboxymethylcellulose (CMC) 106 % of control | dose: 375.0 mg/kg/injection, schedule: Q01DX Z (ip), vehicle: carboxymethylcellulose (CMC) 109 % of control

COC(=O)c1nc2ccc([N+](=O)[O-])cc2n1O
inactive: [12] 101 % of control | [13] 93 % of control | [14] 96 % of control

O=C(O)c1cc(I)cc(Br)c1I
inactive: [3] 102 % of control | [6] 110 % of control | [9] 105 % of control
